From ChEMBL document CHEMBL4138123, “Design, synthesis and biological evaluation of novel pyrazolochalcones as potential modulators of PI3K/Akt/mTOR pathway and inducers of apoptosis in breast cancer cells” (Eur J Med Chem, 2017)

Legend:
Type in all cases: functional
SNB-19 [1] = assay: Cytotoxicity against human SNB19 cells assessed as cell growth at 1 uM after 48 hrs by sulforhodamine B assay relative to control; conditions: SNB-19, 48 h, read-out: Activity
Malme-3M = assay: Cytotoxicity against human MALME-3M cells assessed as cell growth at 0.1 uM after 48 hrs by sulforhodamine B assay relative to control; conditions: read-out: Activity
OVCAR-3 [2] = assay: Cytotoxicity against human OVCAR3 cells assessed as cell growth at 1 uM after 48 hrs by sulforhodamine B assay relative to control; conditions: OVCAR-3, 48 h, read-out: Activity
OVCAR-3 [3] = assay: Cytotoxicity against human OVCAR3 cells assessed as cell growth at 0.1 uM after 48 hrs by sulforhodamine B assay relative to control; conditions: OVCAR-3, 48 h, read-out: Activity
U-251 [4] = assay: Cytotoxicity against human U251 cells assessed as cell growth at 1 uM after 48 hrs by sulforhodamine B assay relative to control; conditions: U-251, 48 h, read-out: Activity
SNB-19 [5] = assay: Cytotoxicity against human SNB19 cells assessed as cell growth at 0.01 uM after 48 hrs by sulforhodamine B assay relative to control; conditions: SNB-19, 48 h, read-out: Activity
HCT-116 = assay: Cytotoxicity against human HCT116 cells assessed as cell growth at 100 uM after 48 hrs by sulforhodamine B assay relative to control; conditions: HCT-116, 48 h, read-out: Activity
NCI-H522 = assay: Cytotoxicity against human NCI-H522 cells assessed as cell growth at 0.01 uM after 48 hrs by sulforhodamine B assay relative to control; conditions: NCI-H522, 48 h, read-out: Activity
IGROV-1 = assay: Cytotoxicity against human IGROV1 cells assessed as cell growth at 0.01 uM after 48 hrs by sulforhodamine B assay relative to control; conditions: IGROV-1, 48 h, read-out: Activity
ACHN = assay: Cytotoxicity against human ACHN cells assessed as cell growth at 1 uM after 48 hrs by sulforhodamine B assay relative to control; conditions: read-out: Activity
PC-3 = assay: Cytotoxicity against human PC3 cells assessed as growth inhibition after 48 hrs by sulforhodamine B assay; conditions: PC-3, 48 h
NCI-H23 = assay: Cytotoxicity against human NCI-H23 cells assessed as growth inhibition after 48 hrs by sulforhodamine B assay; conditions: NCI-H23, 48 h; for CC50: read-out: LC50 (the source's name)
COLO 205 = assay: Cytotoxicity against human COLO205 cells assessed as cell growth at 0.01 uM after 48 hrs by sulforhodamine B assay relative to control; conditions: COLO 205, 48 h, read-out: Activity
K562 = assay: Cytotoxicity against human K562 cells assessed as cell growth at 0.01 uM after 48 hrs by sulforhodamine B assay relative to control; conditions: K562, 48 h, read-out: Activity
SR = assay: Cytotoxicity against human SR cells assessed as cell growth at 100 uM after 48 hrs by sulforhodamine B assay relative to control; conditions: read-out: Activity
A549 [6] = assay: Cytotoxicity against human A549/ATCC cells assessed as cell growth at 0.1 uM after 48 hrs by sulforhodamine B assay relative to control; conditions: A549, 48 h, read-out: Activity
UACC-62 = assay: Cytotoxicity against human UACC62 cells assessed as growth inhibition after 48 hrs by sulforhodamine B assay; conditions: UACC-62, 48 h
NCI/ADR-RES = assay: Cytotoxicity against human NCI/ADR-RES cells assessed as growth inhibition after 48 hrs by sulforhodamine B assay
HOP-62 = assay: Cytotoxicity against human HOP62 cells assessed as cell growth at 10 uM after 48 hrs by sulforhodamine B assay relative to control; conditions: HOP-62, 48 h, read-out: Activity
OVCAR-4 = assay: Cytotoxicity against human OVCAR4 cells assessed as cell growth at 10 uM after 48 hrs by sulforhodamine B assay relative to control; conditions: OVCAR-4, 48 h, read-out: Activity
HCT-15 = assay: Cytotoxicity against human HCT15 cells assessed as cell growth at 0.01 uM after 48 hrs by sulforhodamine B assay relative to control; conditions: HCT-15, 48 h, read-out: Activity
SK-OV-3 = assay: Cytotoxicity against human SKOV3 cells assessed as cell growth at 10 uM after 48 hrs by sulforhodamine B assay relative to control; conditions: SK-OV-3, 48 h, read-out: Activity
MCF7 = assay: Cytotoxicity against human MCF7 cells assessed as cell growth at 100 uM after 48 hrs by sulforhodamine B assay relative to control; conditions: MCF7, 48 h, read-out: Activity
SW-620 = assay: Cytotoxicity against human SW620 cells assessed as growth inhibition after 48 hrs by sulforhodamine B assay; conditions: SW-620, 48 h
HCC 2998 = assay: Cytotoxicity against human HCC2998 cells assessed as cell growth at 0.01 uM after 48 hrs by sulforhodamine B assay relative to control; conditions: HCC 2998, 48 h, read-out: Activity
A498 = assay: Cytotoxicity against human A498 cells assessed as cell growth at 0.1 uM after 48 hrs by sulforhodamine B assay relative to control; conditions: A498, 48 h, read-out: Activity
DU-145 = assay: Cytotoxicity against human DU145 cells assessed as cell growth at 0.01 uM after 48 hrs by sulforhodamine B assay relative to control; conditions: DU-145, 48 h, read-out: Activity
A549 [7] = assay: Cytotoxicity against human A549/ATCC cells assessed as cell growth at 0.01 uM after 48 hrs by sulforhodamine B assay relative to control; conditions: A549, 48 h, read-out: Activity
NCI-H322M = assay: Cytotoxicity against human NCI-H322M cells assessed as growth inhibition after 48 hrs by sulforhodamine B assay; conditions: for CC50: read-out: LC50 (the source's name)
SN12C [8] = assay: Cytotoxicity against human SN12C cells assessed as growth inhibition after 48 hrs by sulforhodamine B assay
MDA-MB-231 = assay: Cytotoxicity against human MDA-MB-231 cells assessed as cell growth at 100 uM after 48 hrs by sulforhodamine B assay relative to control; conditions: MDA-MB-231, 48 h, read-out: Activity
T47D = assay: Cytotoxicity against human T47D cells assessed as cell growth at 1 uM after 48 hrs by sulforhodamine B assay relative to control; conditions: read-out: Activity
RPMI-8226 = assay: Cytotoxicity against human RPMI8226 cells assessed as growth inhibition after 48 hrs by sulforhodamine B assay; conditions: RPMI-8226, 48 h
Hs-578T = assay: Cytotoxicity against human Hs 578T cells assessed as cell growth at 10 uM after 48 hrs by sulforhodamine B assay relative to control; conditions: read-out: Activity
SN12C [9] = assay: Cytotoxicity against human SN12C cells assessed as cell growth at 100 uM after 48 hrs by sulforhodamine B assay relative to control; conditions: read-out: Activity
U-251 [10] = assay: Cytotoxicity against human U251 cells assessed as cell growth at 10 uM after 48 hrs by sulforhodamine B assay relative to control; conditions: U-251, 48 h, read-out: Activity

COc1cc2c(cc1OC)C(=O)/C(=C/c1cc(-c3ccc4c(c3)OCO4)n[nH]1)C2
growth at 1 µM (SNB-19 [1]): 84%
growth at 0.1 µM (Malme-3M): 84%
growth at 1 µM (OVCAR-3 [2]): 75%
growth at 0.1 µM (OVCAR-3 [3]): 101%
growth at 1 µM (U-251 [4]): 56%
growth at 0.01 µM (SNB-19 [5]): 97%
growth at 100 µM (HCT-116): -52%
growth at 0.01 µM (NCI-H522): 91%
growth at 0.01 µM (IGROV-1): 100%
growth at 1 µM (ACHN): 94%
GI50 (PC-3): 1.29 µM
LC50 (PC-3): 6.6 µM
TGI (PC-3): 2.92 µM
GI50 (NCI-H23): 1.87 µM
TGI (NCI-H23): 3.91 µM
CC50 (NCI-H23): 8.19 µM
growth at 0.01 µM (COLO 205): 98%
growth at 0.01 µM (K562): 97%
growth at 100 µM (SR): -22%
growth at 0.1 µM (A549 [6]): 99%
GI50 (UACC-62): 1.63 µM
LC50 (UACC-62): 5.66 µM
TGI (UACC-62): 3.04 µM
GI50 (NCI/ADR-RES): 2.25 µM
LC50 (NCI/ADR-RES): > 100 µM
TGI (NCI/ADR-RES): 6.87 µM
growth at 10 µM (HOP-62): -92%
growth at 10 µM (OVCAR-4): -96%
growth at 0.01 µM (HCT-15): 95%
growth at 10 µM (SK-OV-3): -18%
growth at 100 µM (MCF7): -72%
GI50 (SW-620): 1.35 µM
LC50 (lethal concentration, 50% net cell kill) (SW-620): 8.96 µM
TGI (SW-620): 3.47 µM
growth at 0.01 µM (HCC 2998): 92%
growth at 0.1 µM (A498): 80%
growth at 0.01 µM (DU-145): 102%
growth at 0.01 µM (A549 [7]): 98%
GI50 (NCI-H322M): 1.54 µM
TGI (NCI-H322M): 3.01 µM
CC50 (NCI-H322M): 5.87 µM
GI50 (SN12C [8]): 1.59 µM
LC50 (SN12C [8]): 5.62 µM
TGI (SN12C [8]): 2.99 µM
growth at 100 µM (MDA-MB-231): -96%
growth at 1 µM (T47D): 69%
GI50 (RPMI-8226): 0.23 µM
LC50 (RPMI-8226): 5.52 µM
TGI (RPMI-8226): 0.623 µM
growth at 10 µM (Hs-578T): -9%
growth at 100 µM (SN12C [9]): -96%
growth at 10 µM (U-251 [10]): -97%

COc1ccc(-c2cc(/C=C/C(=O)c3ccc(OC)c(OC)c3)[nH]n2)cc1
growth at 1 µM (SNB-19 [1]): 80%
growth at 0.1 µM (Malme-3M): 89%
growth at 1 µM (OVCAR-3 [2]): 62%
growth at 0.1 µM (OVCAR-3 [3]): 104%
growth at 1 µM (U-251 [4]): 57%
growth at 0.01 µM (SNB-19 [5]): 96%
growth at 100 µM (HCT-116): -100%
growth at 0.01 µM (NCI-H522): 102%
growth at 0.01 µM (IGROV-1): 97%
growth at 1 µM (ACHN): 82%
GI50 (PC-3): 1.45 µM
LC50 (PC-3): 8.3 µM
TGI (PC-3): 3.46 µM
GI50 (NCI-H23): 2.47 µM
TGI (NCI-H23): 6.33 µM
CC50 (NCI-H23): 34.1 µM
growth at 0.01 µM (COLO 205): 103%
growth at 0.01 µM (K562): 109%
growth at 100 µM (SR): -41%
growth at 0.1 µM (A549 [6]): 90%
GI50 (UACC-62): 1.65 µM
LC50 (UACC-62): 6.79 µM
TGI (UACC-62): 3.35 µM
GI50 (NCI/ADR-RES): 3.44 µM
LC50 (NCI/ADR-RES): > 100 µM
TGI (NCI/ADR-RES): 24.8 µM
growth at 10 µM (HOP-62): -25%
growth at 10 µM (OVCAR-4): -27%
growth at 0.01 µM (HCT-15): 95%
growth at 10 µM (SK-OV-3): 29%
growth at 100 µM (MCF7): -100%
GI50 (SW-620): 1.35 µM
LC50 (lethal concentration, 50% net cell kill) (SW-620): 9.54 µM
TGI (SW-620): 3.59 µM
growth at 0.01 µM (HCC 2998): 100%
growth at 0.1 µM (A498): 79%
growth at 0.01 µM (DU-145): 104%
growth at 0.01 µM (A549 [7]): 93%
GI50 (NCI-H322M): 1.62 µM
TGI (NCI-H322M): 4.92 µM
CC50 (NCI-H322M): 18.7 µM
GI50 (SN12C [8]): 1.64 µM
LC50 (SN12C [8]): 8.73 µM
TGI (SN12C [8]): 3.78 µM
growth at 100 µM (MDA-MB-231): -86%
growth at 1 µM (T47D): 70%
GI50 (RPMI-8226): 0.32 µM
LC50 (RPMI-8226): 8.16 µM
TGI (RPMI-8226): 1.33 µM
growth at 10 µM (Hs-578T): 23%
growth at 100 µM (SN12C [9]): -86%
growth at 10 µM (U-251 [10]): -97%
